What was measured:
blood uric acid = test: Multiple dose study of TS dispersion, 14 days (Example 6): blood uric acid level; format: in vivo, healthy subjects and elderly subjects
Method: Example 3 - Preparation of dispersions for oral administration: (a) Using the tosylate salt of 4-r2-(5-Amino-1 H-pyrazol-4-yl)-4-chlorophenoxyl-5- chloro-2-fluoro-N-(1,3-thiazol-4-yl)benzenesulfonamide: Methylcellulose vehicle (0.5% w/v) was prepared as follows. Water for irrigation (600 ml.) was heated in a beaker to between 80°C and 90°C. Methylcellulose (5 g) powder was added, with stirring, until the powder had fully dispersed. The dispersion was then transferred into an ice bath and cooled rapidly whilst adding chilled water for irrigation (400 ml.) to give a clear solution. The dispersion for oral administration was prepared by weighing the required quantity of 4-[2-(5-amino-1 H-pyrazol-4-yl)-4-chlorophenoxy]-5-chloro-2-fluoro-N- (1,3-thiazol-4-yl)benzenesulfonamide tosylate (from 10mg to 2400mg) into an appropriately sized glass amber dosing bottle and adding a volume of vehicle (0.5% (w/v) methylcellulose). The volume of vehicle added was dependant on dose: 15 ml. for doses of drug in the range 10 mg to < 30 mg; and 50 ml. for doses of drug in the range 30 mg to 2400 mg, so that the drug concentration was in the range 0.6 to 50 mg/mL. The dispersion was stored at 2 to 8°C and administered within 72 hours directly from the dosing containers. After administration the glass dosing bottle was rinsed with two approximate equal aliquots of drinking water such that the total volume administered, including dosing volume, was 240 ml_. (b) Using the SDD of 4-[2-(5-Amino-1 H-pyrazol-4-yl)-4-chlorophenoxyl-5-chloro-2- fluoro-N-(1,3-thiazol-4-yl)benzenesulfonamide: Methylcellulose vehicle 0.5% (w/v) was prepared using the procedure set out in Example 3(a) above. The dispersion for oral administration was prepared by weighing the required quantity of 4-[2-(5-amino-1 H-pyrazol-4-yl)-4-chlorophenoxy]-5-chloro-2-fluoro-N- (1,3-thiazol-4-yl)benzenesulfonamide SDD into an appropriately sized glass amber dosing bottle and adding a volume of vehicle (0.5% (w/v) Methylcellulose). The volume of vehicle added was dependent on dose: 20 ml. to 100 ml. over the dose range 10 mg to 2400 mg, so that the drug concentration was in the range 0.6 to 50 mg/mL. The dispersion was stored at 2 to 8°C and administered within 72 hours directly from the dosing containers. After administration the glass dosing bottle was rinsed with two approximate equal aliquots of drinking water such that the total volume administered, including dosing volume, was 240 ml_. […] Uric acid measurements were performed using a commercial colorimetric assay kit (Beckman Coulter). […]

uric acid in urine = test: Multiple dose study of TS dispersion, 14 days (Example 6): uric acid excretion in urine; format: in vivo, healthy subjects and elderly subjects; settings: 24 hour urine, Days 1, 6, 14, 16; returns to baseline by Day 16
Method: Example 6 - Multiple dose study: a double-blind, randomized, placebo-controlled, study in healthy subjects and elderly subjects: Multiple oral doses of 4-[2-(5-amino-1 H-pyrazol-4-yl)-4-chlorophenoxy]-5-chloro-2-fluoro-N-(1,3-thiazol-4-yl)benzenesulfonamide TS dispersion for oral administration, and placebo, were investigated for 14 days, as follows: • healthy subjects, 300 mg twice daily (BID,) • healthy subjects, 450 mg BI D, and • elderly subjects, 300 mg BID.
Subjects were fasted overnight prior to the morning doses and for at least 2 hours prior to the evening doses. Food was withheld for at least 2 hours postdose. A total of 49 subjects were enrolled in the study of which 39 received 4-[2-(5-amino-1 H-pyrazol-4-yl)-4-chlorophenoxy]-5-chloro-2-fluoro-N-(1,3-thiazol-4-yl)benzenesulfonamide TS and 10 received placebo. […]
Concentrations of uric acid in blood decreased following dosing with 4-[2-(5-amino-1 H-pyrazol-4-yl)-4-chlorophenoxy]-5-chloro-2-fluoro-N-(1,3-thiazol-4-yl)benzenesulfonamide. All subjects had blood uric acid values above the LLN on Day 1. […] Uric acid was also measured in urine collected over 24 hours prior to dosing on Day 1, and then on Days 6, 14 and 16. The percent excreted fraction of uric acid in urine was calculated and analyzed with a linear mixed effects model.

[1] = tested on: genotype lb HCV replicon (Huh-7); test: microbe, parasite or virus in culture; settings: Hepatitis C virus, Huh-7, 72 h
Method: The protein was expressed with an 18 amino acid C-terminal truncation to enhance the solubility. The E. coli competent cell line BL21(DE3) was used for expression of the protein. […] The cultures were cooled to 20 °C and induced with 1 mM IPTG. […] After addition of the lysis buffer, frozen cell pellets were resuspended using a tissue homogenizer. To reduce the viscosity of the sample, aliquots of the lysate were sonicated on ice using a microtip attached to a Branson sonicator. […] The protein was purified using two sequential chromatography steps: Heparin sepharose CL-6B and polyU sepharose 4B. […] Each column was eluted with a NaCl gradient which varied in length from 5-50 column volumes depending on the column type. […] The enzyme was aliquoted and stored at -80 °C. […] Unbound primer was removed after centrifugation. […] After incubating for at least 15 minutes, plates were read on an Amersham LEADseeker multimodality imaging system. IC50 values for compounds were determined using ten different [I]. […] Cell lines. […] These cells were maintained in Dulbecco's modified Eagle medium (DMEM) containing 10% FBS, 100 U/mL penicillin/streptomycin and 1.0 mg/mL G418. […]

SMILES	day on which median blood uric acid concentrations fell below LLN (blood uric acid; 450 mg BID)	median blood uric acid concentration relative to LLN (blood uric acid; all cohorts (300 mg and 450 mg BID), Day 6)	Concentrations of uric acid in blood (blood uric acid; following dosing, given as TS dispersion 300 mg or 450 mg BID)	time after cessation of dosing until blood uric acid returned to above the LLN for all subjects (blood uric acid; i.e. by Day 16) [days]	excreted fraction of uric acid in urine (uric acid in urine)	EC50 [1] [nM]
Nc1[nH]ncc1-c1cc(Cl)ccc1Oc1cc(F)c(S(=O)(=O)Nc2cscn2)cc1Cl [4-[2-(5-amino-1H-pyrazol-4-yl)-4-chlorophenoxy]-5-chloro-2-fluoro-N-(1,3-thiazol-4-yl)benzenesulfonamide]	Day 3	below the LLN	decreased	≤ 2	increases during dosing	
CN1CC2CCC(C1)N2C(=O)[C@]12C[C@H]1c1cc(F)ccc1-c1c(C3CCCCC3)c3ccc(C(=O)NS(=O)(=O)C4(C)CC4)cc3n1C2 [Compound 2, (1aR,12bS)-8-cyclohexyl-11-fluoro-N-((1-methylcyclopropyl)sulfonyl)-1a-((3-methyl-3,8-diazabicyclo[3.2.1]oct-8-yl)carbonyl)-1,1a,2,12b-tetrahydrocyclopropa[d]indolo[2,1-a][2]benzazepine-5-carboxamide]						7
